Data from patent US9029557B2, “Labeled A4B2 ligands and methods therefor” (priority 2004, dated 2015).
Where two headings read alike, the source gives them in different places.

How the values were obtained:
[1] = biological target: α4β2 receptor sites (Rattus norvegicus, UniProt P09483+P12390)
Procedure: Coronal and horizontal brain slices ([…]) were obtained from male Sprague-Dawley rats. Sets of brain slices were preincubated in buffer (50 mmol/L Tris HCl containing 120 mmol/L NaCl, 5 mmol/L KCl, 2.5 mmol/L CaCl2, 1 mmol/L MgCl2, pH 7.4) for 10 min (26). […] Nonspecific binding was measured in the presence of […] (weighed as nicotine ditartarate). In some experiments, a lower concentration of nicotine (10 μmol/L) was also used. After incubation, slides were washed twice (1 min each) with ice-cold Tris HCl buffer, pH 7.4, followed by a quick rinse in cold deionized water. The slides were then air dried and apposed to phosphor screens overnight and read by the Cyclone Phosphor Imaging System (Packard Instruments Co).

[2] = biological target: T1, α4β2 receptor (Rattus norvegicus, UniProt P09483+P12390); conditions: for % ID/g Blood / % ID/g Cerebellum / % ID/g Cortex / % ID/g Thalamus: i.v. 3.7 MBq
Excerpt: The animals were allowed to recover from anesthesia and had free access to food and water. […] Thalamus, Ctx, cerebellum, and blood were isolated from each rat and placed in preweighed tubes and were counted for 18F radioactivity.

[3] = test system: α4β2 receptor
Procedure: The male rhesus monkey (12 kg) was anesthetized using ketamine (10 mg/kg) and xylazine (0.5 mg/kg) and was subsequently maintained on 0.5%-1.5% isoflurane. Two intravenous catheters were placed, one on each arm, for purposes of administration of the radiopharmaceutical and for obtaining blood samples during the study. The head of the animal was placed in the gantry of an ECAT EXACT HR PET scanner and positioned in place with adhesive tape as described previously. A transmission scan using a 68Ge/68Ga rod source was acquired before administration of the radiopharmaceutical to correct for tissue attenuation of the coincident radiation.
Data in the final form are expressed in units of the percentage injected dose per milliliter (% ID/mL) or kilobecquerels per milliliter (kBq/mL). […] Time-activity curves were obtained for all these regions. […] This MRI template of the rhesus (Macaca mulatta) brain is an average of 6 monkeys with T1-weighted MR scans. Postimage processing removed the skull and scalp from the template (courtesy of University of Wisconsin-Madison).

[4] = biological target: T2, rat brain α4β2 receptors (Rattus norvegicus, UniProt P09483+P12390); assay: Brain homogenate binding assay using 3H-cytisine; conditions: read-out: Binding affinity Ki for rat brain α4β2 receptors
T2 construct: The brains from male Sprague-Dawley rats (n=4 per group) were extracted and frozen; from tissue; host or cells: rat brain (Sprague-Dawley)

[5] = biological target: T1, α4β2 receptor; assay: Displacement of 18F-nifene bound in rat brain slices; assay type: binding; parameters: The brains from male Sprague-Dawley rats (n=4 per group) were extracted and frozen; from tissue; host or cells: rat brain (Sprague-Dawley); conditions: 10 nM
[6] = biological target: alpha4-beta2 receptors (Rattus norvegicus, UniProt P09483+P12390); conditions: nicotine 60 μM, horizontal rat brain slices
[7] = biological target: T1, α4β2 receptor; assay: Autoradiography of 123I-niodene in rat brain sections; assay type: binding; parameters: The brains from male Sprague-Dawley rats (n=4 per group) were extracted and frozen; from tissue; host or cells: rat brain (Sprague-Dawley); conditions: low specific activity 123I-niodene, 5 nM
[8] = biological target: T3, α4β2 receptors (Homo sapiens, UniProt P17787+P43681); assay: Affinity of Niofene; assay type: binding
[9] = biological target: T3, α4β2 receptors; parameters: host or cells: human brain in vivo (SPECT), work done elsewhere; conditions: human studies; cited from earlier work
[10] = biological target: T4, α3β2 sites (Rattus norvegicus, UniProt P04757+P12390); assay: In vitro binding affinity, inhibition of 125I-IEB in rat brain slices (autoradiography), α3β2 sites; conditions: 125I-IEB in presence of 200 nmol/L cytisine
T4 construct: The brains from male Sprague-Dawley rats (n=4 per group) were extracted and frozen; from tissue; host or cells: rat brain slices (DLG, SuG, optic tract)
Procedure: (§1) In vitro binding affinity of nifrolidine was measured in rat brain slices labeled with 125I-iodoepibatidine (125I-IEB) or 125I-α-bungarotoxin. The brains from male Sprague-Dawley rats (n=4 per group) were extracted and frozen in isopentane at […].
(§2) Coronal sections (20-μm thick) were prepared from 4 brain levels on a cryostat at […]. […] Competition studies were performed by incubating alternate sections with 125IIEB in the absence or presence of cytisine (200 nmol/L) and nicotine (300 μmol/L) and various concentrations of nifrolidine (0-30 nmol/L). Slides were then rinsed twice for 10 min in ice-cold buffer, dipped briefly in ice-cold water, blown dry, and laid out for autoradiography along with 125I plastic standards of known radioactivity (FIG. 3). […]
(§3) Autoradiograms were quantified with a computer-based image analysis system (MCID; Imaging Research) using calibrated standards of reference. A calibration curve of to optical density against radioligand concentration (fmol/mg tissue) was constructed using values of known radioactivity. Optical densities in discrete regions of the autoradiographic images were measured, and corresponding values of radioactivity were determined by interpolation from the calibration curve. Specific binding values in each region were determined by subtracting binding in the presence of excess inhibitor from total binding values. […]

[11] = biological target: T5, α3β4 sites (Rattus norvegicus, UniProt P04757+P12392); assay: In vitro binding affinity, inhibition of 125I-IEB in rat brain slices (autoradiography), α3β4 sites; conditions: 125I-IEB in presence of 200 nmol/L cytisine
T5 construct: The brains from male Sprague-Dawley rats (n=4 per group) were extracted and frozen; from tissue; host or cells: rat brain slices (pineal, interpeduncular nucleus, medial habenula)
Procedure: as §1, §2, §3

[12] = biological target: T6, α7 nAChRs (Rattus norvegicus, UniProt Q05941); assay: 125I-α-bungarotoxin binding competition in rat brain slices; conditions: up to a concentration of 30 nmol/L
T6 construct: The brains from male Sprague-Dawley rats (n=4 per group) were extracted and frozen; from tissue; host or cells: rat brain slices (VLG, SuG)
Procedure: as §1, §2, §3

[13] = biological target: T7, α4β2 nAChRs (Rattus norvegicus, UniProt P09483+P12390); assay: In vitro binding affinity, inhibition of 125I-IEB in rat brain slices (autoradiography), α4β2 sites; parameters: from tissue; host or cells: brain of the living rat (PET); conditions: p-toluenesulfonate salt
Procedure: as §1, §2, §3

[14] = biological target: α4β2 nAChRs (Homo sapiens, UniProt P17787+P43681); conditions: comparison agents; cited from earlier work
[15] = biological target: T7, α4β2 nAChRs; conditions: rat PET, cerebellum as reference region
[16] = rhesus monkey PET, 155 MBq i.v.

T1 sequence (P09483 31-630): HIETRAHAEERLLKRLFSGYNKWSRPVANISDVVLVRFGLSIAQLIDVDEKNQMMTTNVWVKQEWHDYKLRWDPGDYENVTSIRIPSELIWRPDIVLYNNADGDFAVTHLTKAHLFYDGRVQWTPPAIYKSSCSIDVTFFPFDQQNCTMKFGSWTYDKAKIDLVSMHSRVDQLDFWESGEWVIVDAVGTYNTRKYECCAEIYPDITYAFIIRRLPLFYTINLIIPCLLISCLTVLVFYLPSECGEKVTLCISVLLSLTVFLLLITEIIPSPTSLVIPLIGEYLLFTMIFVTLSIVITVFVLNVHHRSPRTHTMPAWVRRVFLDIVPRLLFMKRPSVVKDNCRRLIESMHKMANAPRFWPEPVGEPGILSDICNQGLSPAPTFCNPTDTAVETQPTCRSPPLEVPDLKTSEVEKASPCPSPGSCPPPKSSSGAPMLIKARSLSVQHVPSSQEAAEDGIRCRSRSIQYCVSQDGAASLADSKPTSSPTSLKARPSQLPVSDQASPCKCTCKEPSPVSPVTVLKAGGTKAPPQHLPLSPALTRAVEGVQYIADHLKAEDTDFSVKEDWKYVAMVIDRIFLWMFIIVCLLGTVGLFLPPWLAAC
T1 sequence (P12390 25-500): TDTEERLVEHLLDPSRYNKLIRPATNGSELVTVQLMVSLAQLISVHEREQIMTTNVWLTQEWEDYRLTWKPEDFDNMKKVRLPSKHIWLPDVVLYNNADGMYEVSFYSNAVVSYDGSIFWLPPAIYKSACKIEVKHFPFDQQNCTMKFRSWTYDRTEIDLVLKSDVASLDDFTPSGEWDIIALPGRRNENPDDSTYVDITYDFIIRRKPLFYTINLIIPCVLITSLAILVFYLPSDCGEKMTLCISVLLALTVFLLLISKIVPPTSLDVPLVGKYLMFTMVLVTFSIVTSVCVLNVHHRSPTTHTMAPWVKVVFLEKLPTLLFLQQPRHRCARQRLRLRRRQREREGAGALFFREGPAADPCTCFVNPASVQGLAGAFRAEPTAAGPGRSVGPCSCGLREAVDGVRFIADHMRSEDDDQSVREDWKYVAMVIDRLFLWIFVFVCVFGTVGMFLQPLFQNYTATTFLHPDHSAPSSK
T3 sequence (P43681 29-627 limits assumed): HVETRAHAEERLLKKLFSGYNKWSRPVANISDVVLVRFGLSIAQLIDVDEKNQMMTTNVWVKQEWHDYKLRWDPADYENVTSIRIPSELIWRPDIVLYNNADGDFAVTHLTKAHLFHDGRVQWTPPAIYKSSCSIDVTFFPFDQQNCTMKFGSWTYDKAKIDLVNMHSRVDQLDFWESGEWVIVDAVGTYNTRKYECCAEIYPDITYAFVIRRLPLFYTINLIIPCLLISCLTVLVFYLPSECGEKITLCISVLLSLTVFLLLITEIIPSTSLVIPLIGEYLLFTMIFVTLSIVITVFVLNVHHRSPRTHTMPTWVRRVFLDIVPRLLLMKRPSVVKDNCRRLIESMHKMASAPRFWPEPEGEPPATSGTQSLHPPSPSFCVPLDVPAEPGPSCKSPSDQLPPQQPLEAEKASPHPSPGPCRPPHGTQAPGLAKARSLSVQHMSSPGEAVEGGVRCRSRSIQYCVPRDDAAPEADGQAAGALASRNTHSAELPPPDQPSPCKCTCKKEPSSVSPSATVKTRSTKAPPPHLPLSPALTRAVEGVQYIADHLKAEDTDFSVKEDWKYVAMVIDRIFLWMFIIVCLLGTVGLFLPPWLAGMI
T3 sequence (P17787 26-502): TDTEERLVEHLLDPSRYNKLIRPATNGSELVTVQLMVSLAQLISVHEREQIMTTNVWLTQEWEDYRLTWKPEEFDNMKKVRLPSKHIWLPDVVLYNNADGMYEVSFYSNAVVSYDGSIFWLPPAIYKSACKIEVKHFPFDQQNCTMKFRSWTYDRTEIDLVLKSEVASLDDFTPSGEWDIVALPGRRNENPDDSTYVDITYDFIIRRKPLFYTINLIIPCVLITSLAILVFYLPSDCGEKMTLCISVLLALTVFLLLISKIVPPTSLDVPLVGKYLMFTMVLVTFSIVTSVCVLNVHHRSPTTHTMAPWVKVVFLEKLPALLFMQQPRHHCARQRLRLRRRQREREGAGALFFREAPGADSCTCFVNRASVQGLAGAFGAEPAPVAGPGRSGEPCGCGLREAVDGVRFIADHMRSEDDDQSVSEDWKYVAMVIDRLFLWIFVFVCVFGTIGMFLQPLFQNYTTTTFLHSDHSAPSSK
T7 sequence (P09483 31-630): as the sequence (P09483 31-630) above
T7 sequence (P12390 25-500): as the sequence (P12390 25-500) above
Chain of α4β2 receptor sites (P09483 31-630): as the sequence (P09483 31-630) above
Chain of α4β2 receptor sites (P12390 25-500): as the sequence (P12390 25-500) above
T6 sequence (Q05941 23-502): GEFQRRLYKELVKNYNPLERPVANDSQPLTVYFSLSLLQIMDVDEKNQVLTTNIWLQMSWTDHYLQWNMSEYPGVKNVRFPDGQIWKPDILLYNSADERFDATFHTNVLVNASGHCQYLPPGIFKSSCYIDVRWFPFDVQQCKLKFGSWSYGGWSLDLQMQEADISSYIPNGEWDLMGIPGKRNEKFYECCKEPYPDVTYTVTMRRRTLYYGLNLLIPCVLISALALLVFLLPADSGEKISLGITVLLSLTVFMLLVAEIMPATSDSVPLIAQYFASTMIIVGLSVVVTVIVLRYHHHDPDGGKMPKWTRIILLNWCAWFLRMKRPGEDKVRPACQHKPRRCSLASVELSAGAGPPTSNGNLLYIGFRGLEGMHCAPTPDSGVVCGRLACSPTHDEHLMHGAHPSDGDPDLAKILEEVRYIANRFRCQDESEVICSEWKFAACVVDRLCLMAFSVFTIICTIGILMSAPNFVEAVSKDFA
Chain of α4β2 nAChRs (Homo sapiens, UniProt P17787+P43681) (P43681 29-627 limits assumed): as the sequence (P43681 29-627 limits assumed) above
Chain of α4β2 nAChRs (Homo sapiens, UniProt P17787+P43681) (P17787 26-502): as the sequence (P17787 26-502) above
T5 sequence (P04757 26-499): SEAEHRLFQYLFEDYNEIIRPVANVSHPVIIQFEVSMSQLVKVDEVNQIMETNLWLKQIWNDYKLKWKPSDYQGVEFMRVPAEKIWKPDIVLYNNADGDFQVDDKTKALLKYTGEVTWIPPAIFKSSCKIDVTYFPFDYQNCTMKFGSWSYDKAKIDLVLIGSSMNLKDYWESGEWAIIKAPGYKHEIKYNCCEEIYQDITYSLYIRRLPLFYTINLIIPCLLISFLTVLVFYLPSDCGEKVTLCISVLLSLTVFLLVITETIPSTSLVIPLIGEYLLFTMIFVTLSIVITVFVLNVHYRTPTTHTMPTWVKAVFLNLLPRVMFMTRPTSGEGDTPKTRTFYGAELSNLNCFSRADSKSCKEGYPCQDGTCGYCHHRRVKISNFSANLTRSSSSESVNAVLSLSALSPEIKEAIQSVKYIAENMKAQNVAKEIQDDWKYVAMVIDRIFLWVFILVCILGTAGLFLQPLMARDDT
T5 sequence (P12392 21-495): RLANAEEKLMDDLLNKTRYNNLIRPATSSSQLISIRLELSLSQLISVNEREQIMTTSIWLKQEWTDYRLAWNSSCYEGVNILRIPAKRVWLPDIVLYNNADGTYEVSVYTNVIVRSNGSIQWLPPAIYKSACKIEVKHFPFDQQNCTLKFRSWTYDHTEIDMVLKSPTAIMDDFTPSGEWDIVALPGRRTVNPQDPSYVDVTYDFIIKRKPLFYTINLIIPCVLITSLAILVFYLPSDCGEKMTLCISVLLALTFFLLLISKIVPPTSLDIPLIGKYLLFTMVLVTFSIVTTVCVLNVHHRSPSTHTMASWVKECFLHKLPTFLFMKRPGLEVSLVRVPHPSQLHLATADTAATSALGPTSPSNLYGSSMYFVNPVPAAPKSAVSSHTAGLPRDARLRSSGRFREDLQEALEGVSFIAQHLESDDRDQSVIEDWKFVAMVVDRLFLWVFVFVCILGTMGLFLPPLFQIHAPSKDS
T4 sequence (P04757 26-499): as the sequence (P04757 26-499) above
T4 sequence (P12390 25-500): as the sequence (P12390 25-500) above
Chain of alpha4-beta2 receptors (P09483 31-630): as the sequence (P09483 31-630) above
Chain of alpha4-beta2 receptors (P12390 25-500): as the sequence (P12390 25-500) above
T2 sequence (P09483 31-630): as the sequence (P09483 31-630) above
T2 sequence (P12390 25-500): as the sequence (P12390 25-500) above

## [18F]CCCc1cncc(OC[C@@H]2CCCN2)c1 [18F-nifrolidine, 5-(3-18F-fluoropropyl)-3-(2-(S)-pyrrolidinylmethoxy)pyridine]
[1]; horizontal rat brain slices
  binding in cerebellum as % of that found in the AV: approximately 8%
[1]; horizontal slices
  order of binding in brain regions: thalamus>Ctx>striata>cerebellum
[2]; rat, 2 min
  Thalamus-to-cerebellum ratio, Control: 1.30
  % ID/g Blood: 0.25 % ID/g
  % ID/g Cerebellum: 0.24 ± 0.03 % ID/g
  % ID/g Cortex: 0.21 ± 0.04 % ID/g
  % ID/g Thalamus: 0.26 ± 0.05 % ID/g
[2]; rat, 60 min
  Thalamus-to-cerebellum ratio, Control: 3.08
  % ID/g Blood: 0.14 ± 0.03 % ID/g
  % ID/g Cerebellum: 0.12 ± 0.02 % ID/g
  % ID/g Cortex: 0.25 ± 0.03 % ID/g
  % ID/g Thalamus: > 0.3 % ID/g
[2]; rat, 60 min, nicotine ditartarate 10 mg/kg s.c. 5 min before 18F-nifrolidine
  Thalamus-to-cerebellum ratio, Before nicotine: 1.8
[2]; rat, 120 min
  Thalamus-to-cerebellum ratio, Control: 1.40
  % ID/g Blood: < 0.03 % ID/g
  % ID/g Cerebellum: 0.10 ± 0.02 % ID/g
  % ID/g Cortex: 0.13 ± 0.04 % ID/g
  % ID/g Thalamus: 0.14 ± 0.03 % ID/g
[2]; rat, 2 min, listed as 18F-NIFROLIDINE
  % ID/g Blood: 0.25 ± 0.09 % ID/g
[2]; rat, 60 min, listed as 18F-NIFROLIDINE
  % ID/g Thalamus: 0.37 ± 0.07 % ID/g
[2]; rat, 120 min, listed as 18F-NIFROLIDINE
  % ID/g Blood: 0.04 ± 0.01 % ID/g
[2]; rodents, in vivo
  blood-brain barrier penetration: able to cross the blood-brain barrier
[3]; anesthetized rhesus monkey, 155 MBq
  vital signs: did not exhibit any unusual deviations from the baseline values
[3]; rhesus monkey PET
  time of maximal binding in the thalamus following injection: > 70 min
  time to approach transient equilibrium: about 2.5 hrs
  time to plateauing of the thalamus-to-Cb ratio: 150 min
[3]; [16]
  selective maximal uptake in AVT and AMT: 0.011 % ID/mL
  uptake in VLT: 0.10 % ID/mL
[3]; rhesus monkey PET, about 140 min after injection
  ratio between the thalamus and the Cb: approximately 1.7
[3]; rhesus monkey PET, in 120 min
  cortical regions to Cb ratio: 1.3
  thalamus-to-Cb ratio (plateau): 1.7

## Ic1cncc(OC[C@@H]2C=CCN2)c1 [Niodene, 3-iodo-5-[2-(S)-3-pyrrolinylmethoxy]pyridine]
[4]
  Ki: 0.27 nM
[5]
  displacement of 18F-nifene bound to α4β2 receptors: > 95%

## [18F]c1ncccc1OC[C@@H]1C=CCN1 [^18F-Nifene, 2-[^18F]fluoro-3-[2-(S)-pyrrolinyl-3,4-dehydromethoxy]pyridine]
[6]
  reversal of binding by nicotine: rapidly reverse

## [123I]c1cncc(OCC2C=CCN2)c1 (centres unmarked) [^123I-niodene]
[7]
  cortex to cerebellum binding ratio: 1.6
  thalamus to cerebellum binding ratio: 4

## Fc1ncc(I)cc1OC[C@@H]1C=CCN1 [Niofene, 2-Fluoro-5-iodo-3-[2-(S)-3,4-dehydropyrrolinylmethoxy]pyridine]
[8]
  affinity: subnanomolar

## Ic1cncc(OC[C@@H]2CCN2)c1 [5-IA85380]
[9]
  scanning time required: over 6 hrs

## FCCCc1cncc(OC[C@@H]2CCCN2)c1 [nifrolidine, 5-(3′-fluoropropyl)-3-(2-(S)-pyrrolidinylmethoxy)-pyridine]
[10]
  Ki: > 30 nM
[11]
  Ki: > 30 nM
[12]
  affinity for α7 sites (displacement of 125I-α-bungaratoxin): no measureable displacement and weak
[13]
  Ki: 2.89 nM

## [18F]c1ncccc1OC[C@@H]1CCN1 [2-FA85380, 2-18F-fluoro-3-(2(S)-azetidinylmethoxy)pyridine]
[14]
  time to reach pseudoequilibrium: 4 to 6 h

## [18F]c1ncc(I)cc1OC[C@@H]1C=CCN1 [18F-Niofene, 2-^18F-5-iodo-3-[2-(S)-3,4-dehydropyrrolinylmethoxy]pyridine]
[15]
  TH/CB at pseudoequilibrium: > 2
